Test results as given in PubChem BioAssay (NCI).
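All cell lines were grown in 96-well plates and treated with compound for 48 hours. Definition used: TGI = concentration required for complete inhibition of growth.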

How the values were obtained:
Test in all cases: DTP human tumour cell line panel, 48 h
[1] = test system: TK-10 renal
[2] = test system: MDA-MB-231 breast
[3] = test system: NCI-H226 lung
[4] = test system: HCT-116 colon
[5] = test system: U251 CNS
[6] = test system: RPMI-8226 leukemia
[7] = test system: HOP-62 NSCLC
[8] = test system: DU-145 prostate
[9] = test system: OVCAR-5 ovarian
[10] = test system: HCT-15 colon
[11] = test system: MDA-N
[12] = test system: OVCAR-3 ovarian
[13] = test system: SK-MEL-5 melanoma
[14] = test system: K-562 leukemia
[15] = test system: LOX IMVI melanoma
[16] = test system: OVCAR-8 ovarian
[17] = test system: SF-268 CNS
[18] = test system: SF-295 CNS
[19] = test system: UACC-257 melanoma
[20] = test system: SK-OV-3 ovarian
[21] = test system: CCRF-CEM leukemia
[22] = test system: A549 NSCLC
[23] = test system: HL-60(TB) leukemia
[24] = test system: COLO 205 colon
[25] = test system: UACC-62 melanoma
[26] = test system: MOLT-4 leukemia
[27] = test system: HOP-92 NSCLC
[28] = test system: PC-3 prostate
[29] = test system: SN12C renal
[30] = test system: RXF 393 renal
[31] = test system: SW-620 colon
[32] = test system: NCI-H460 lung
[33] = test system: HT29 colon
[34] = test system: SK-MEL-28 melanoma
[35] = test system: MCF7 breast
[36] = test system: HCC-2998 colon
[37] = test system: OVCAR-4 ovarian
[38] = test system: SR leukemia
[39] = test system: KM12 colon
[40] = test system: NCI-H522 lung
[41] = test system: SK-MEL-2 melanoma
[42] = test system: NCI-H23 lung
[43] = test system: ACHN renal
[44] = test system: SNB-75 CNS
[45] = test system: IGROV1 ovarian
[46] = test system: BT-549 breast
[47] = test system: HS 578T breast
[48] = test system: T-47D breast
[49] = test system: MALME-3M melanoma
[50] = test system: A498 renal
[51] = test system: SF-539 CNS
[52] = test system: SNB-19 CNS
[53] = test system: M14 melanoma
[54] = test system: UO-31 renal
[55] = test system: NCI/ADR-RES ovarian
[56] = test system: EKVX NSCLC
[57] = test system: 786-0 renal
[58] = test system: MDA-MB-435
[59] = test system: CAKI-1 renal

## CCOC(=O)Oc1ccc(C(CNC(C)C)OC(=O)OCC)cc1OC(=O)OCC (stereo unspecified)
[1]
  TGI: > 100 µM
[2]
  TGI: > 100 µM
[3]
  TGI: > 100 µM
[4]
  TGI: > 100 µM
[5]
  TGI: > 100 µM
[6]
  TGI: > 100 µM
[7]
  TGI: > 100 µM
[8]
  TGI: > 100 µM
[9]
  TGI: > 100 µM
[10]
  TGI: > 100 µM
[11]
  TGI: > 100 µM
[12]
  TGI: > 100 µM
[13]
  TGI: > 100 µM
[14]
  TGI: > 100 µM
[15]
  TGI: > 100 µM
[16]
  TGI: > 100 µM
[17]
  TGI: > 100 µM
[18]
  TGI: > 100 µM
[19]
  TGI: > 100 µM
[20]
  TGI: > 100 µM
[21]
  TGI: > 100 µM
[22]
  TGI: > 100 µM
[23]
  TGI: 98.5 µM
[24]
  TGI: > 100 µM
[25]
  TGI: > 100 µM
[26]
  TGI: > 100 µM
[27]
  TGI: > 100 µM
[28]
  TGI: > 100 µM
[29]
  TGI: > 100 µM
[30]
  TGI: > 100 µM
[31]
  TGI: > 100 µM
[32]
  TGI: > 100 µM
[33]
  TGI: > 100 µM
[34]
  TGI: > 100 µM
[35]
  TGI: > 100 µM
[36]
  TGI: > 100 µM
[37]
  TGI: > 100 µM
[38]
  TGI: > 100 µM
[39]
  TGI: > 100 µM
[40]
  TGI: > 100 µM
[41]
  TGI: > 100 µM
[42]
  TGI: > 100 µM
[43]
  TGI: > 100 µM
[44]
  TGI: > 100 µM
[45]
  TGI: > 100 µM
[46]
  TGI: > 100 µM
[47]
  TGI: > 100 µM
[48]
  TGI: > 100 µM
[49]
  TGI: > 100 µM
[50]
  TGI: > 100 µM
[51]
  TGI: > 100 µM
[52]
  TGI: > 100 µM
[53]
  TGI: > 100 µM
[54]
  TGI: > 100 µM
[55]
  TGI: > 100 µM
[56]
  TGI: > 100 µM
[57]
  TGI: > 100 µM
[58]
  TGI: > 100 µM
[59]
  TGI: > 100 µM

## Cn1c(CCC2(C)Cc3ccccc3C(=O)O2)cc2ccccc2c1=O (stereo unspecified)
[2]
  TGI: > 100 µM
[3]
  TGI: 54.7 µM
[5]
  TGI: > 100 µM
[6]
  TGI: 48 µM
[7]
  TGI: 48 µM
[8]
  TGI: 59.8 µM
[9]
  TGI: > 100 µM
[10]
  TGI: > 100 µM
[11]
  TGI: 49.8 µM
[12]
  TGI: 54 µM
[13]
  TGI: 30.9 µM
[16]
  TGI: > 100 µM
[18]
  TGI: > 100 µM
[20]
  TGI: 65.7 µM
[21]
  TGI: 27 µM
[22]
  TGI: > 100 µM
[23]
  TGI: > 100 µM
[24]
  TGI: 84 µM
[27]
  TGI: > 100 µM
[28]
  TGI: 46.5 µM
[29]
  TGI: > 100 µM
[30]
  TGI: 64.4 µM
[32]
  TGI: 76.8 µM
[34]
  TGI: 76.6 µM
[35]
  TGI: 56.3 µM
[36]
  TGI: > 100 µM
[37]
  TGI: > 100 µM
[38]
  TGI: > 100 µM
[39]
  TGI: 23.3 µM
[40]
  TGI: 44.2 µM
[41]
  TGI: 64.9 µM
[42]
  TGI: 83 µM
[44]
  TGI: 58.3 µM
[45]
  TGI: 86.6 µM
[46]
  TGI: 44 µM
[47]
  TGI: > 100 µM
[48]
  TGI: 83.3 µM
[49]
  TGI: > 100 µM
[50]
  TGI: > 100 µM
[51]
  TGI: 74.4 µM
[52]
  TGI: > 100 µM
[53]
  TGI: 33.5 µM
[54]
  TGI: 37.7 µM
[55]
  TGI: > 100 µM
[57]
  TGI: > 100 µM
[58]
  TGI: 41.9 µM
[59]
  TGI: 51.6 µM
